These are literature values, as cited in US20260248891A1, “TIRZEPATIDE COMPOSITIONS AND USE” (Eli Lilly and Company, priority 2022, published 2026).

The data set concerns patients with obesity or overweight. To be noted: Phase 3 study, currently approved doses.

With tirzepatide, the weight loss is reported as 15.7%.
